Measured values as given in patent US6399777B2, “Inclusion complexes of aryl-heterocyclic salts” (Pfizer Inc., priority 1996, dated 2002).
Counter-ions that a name gives are not always drawn.

Legend:
[1] = Equilibrium solubility of ziprasidone salts in 40% (w/v) aqueous HPBCD, HPLC; format: physicochemical; settings: 40% (w/v) HPBCD in water, stirred four days at ambient temperature; calculated as free base
Excerpt: Many different experimental protocols can be envisioned and implemented. […] HPBCD was purchased commercially from Wacker Chemie.

[2] = Solubility of ziprasidone salts in water; settings: weight of ziprasidone calculated as the free base
[3] = Equilibrium solubility of ziprasidone salts in 40% (w/v) aqueous SBECD, HPLC; settings: in 40% SBECD; from Table 1
Protocol: The following protocol illustrates the protocol employed for the instant invention using 40% aqueous cyclodextrin. The same protocol was employed for other aqueous cyclodextrin concentrations such as those used to generate FIG. 1.
A 40% (w/v) solution of cyclodextrin (SBECD or HPBCD) in water was prepared by adding 200 g of cyclodextrin to a 500 ml beaker containing approximately 250 ml of deionized water and a magnetic stir bar. The contents were stirred until dissolution of the cyclodextrin in the water was complete, usually a time of about one hour being sufficient. The solution was then transferred to a 500 ml volumetric flask and deionized water was added to the mark. 5 ml of the volumetric solution was pipetted into a 10 ml glass vial with a screw cap. […] The vial contents were stirred for four days at ambient temperature to allow a sufficient time for equilibrium to be established. […] The contents were filtered into a clean screw cap vial through a Millex-GS 0.2 μm filter and the drug concentration determined by an HPLC method.
Detection can be by UV absorption at a wavelength of 229 nm. Quantification can be effected facilely by comparison of HPLC peak height (or area) with the peak height (or area) taken from a standard plot of concentration vs. peak height (or area) for standards of known concentration. […]

## O=C1Cc2cc(CCN3CCN(c4nsc5ccccc45)CC3)c(Cl)cc2N1 [aspartate, ziprasidone]
[1]
  Solubility in 40% HPBCD: 1.3 μgA/ml

## O=C1Cc2cc(CCN3CCN(c4nsc5ccccc45)CC3)c(Cl)cc2N1 [besylate, ziprasidone]
[2]
  Solubility in water: 80 μgA/ml

## O=C1Cc2cc(CCN3CCN(c4nsc5ccccc45)CC3)c(Cl)cc2N1 [esylate, Ziprasidone Esylate]
[1]
  Solubility in 40% HPBCD: 13.7 μgA/ml

## O=C1Cc2cc(CCN3CCN(c4nsc5ccccc45)CC3)c(Cl)cc2N1 [free base, ziprasidone, reference compound]
[2]
  Solubility in water: 0.3 μgA/ml

## O=C1Cc2cc(CCN3CCN(c4nsc5ccccc45)CC3)c(Cl)cc2N1 [hydrochloride, ziprasidone]
[1]
  Solubility in 40% HPBCD: 2.4 μgA/ml
[2]
  Solubility in water: 80 μgA/ml

## O=C1Cc2cc(CCN3CCN(c4nsc5ccccc45)CC3)c(Cl)cc2N1 [mesylate, Ziprasidone Mesylate]
[1]
  Solubility in 40% HPBCD: 17.3 μgA/ml
[2]
  Solubility in water: 1000 μgA/ml
[3]
  Comparison of solubility among the salt candidates and cyclodextrin solutions tested: highest solubility

## O=C1Cc2cc(CCN3CCN(c4nsc5ccccc45)CC3)c(Cl)cc2N1 [tartrate, Ziprasidone Tartrate]
[1]
  Solubility in 40% HPBCD: 12.4 μgA/ml
[2]
  Solubility in water: 180 μgA/ml
